Source: US12600717B2, “Tricyclic compounds as inhibitors of KRAS” (Incyte Corporation, priority 2021, dated 2026)

Key:
KRAS G12D = KRAS G12D (Homo sapiens, UniProt P01116, G12D); assay: GDP-GTP exchange assay (bodipy-GDP/GppNHp, SOS1), KRAS G12D; format: biochemical; settings: bodipy-loaded KRAS G12D 2.5 nM, 4 hours pre-incubation with inhibitor, 2 hours after GppNHp/SOS1; read-out: G12D_exchange IC50
Summary of the method: (§1)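 Bodipy-GDP-loaded KRAS (2.5 nM final) pre-incubated with inhibitor 4 h at ambient temperature in 25 mM Hepes pH 7.5, 50 mM NaCl, 10 mM MgCl2, 0.01% Brij-35. Exchange started with GppNHp (500 uM) plus SOS1 (150 nM); read after 2 h (G12D) or 3 h (G12V). Fluorescence ex 485/em 520 nm; IC50 from four-parameter logistic fit.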

KRAS G12V = KRAS G12V (Homo sapiens, UniProt P01116, G12V); assay: GDP-GTP exchange assay (bodipy-GDP/GppNHp, SOS1), KRAS G12V; format: biochemical; settings: bodipy-loaded KRAS G12V 2.5 nM, 3 hours incubation after adding GppNHp-SOS1; read-out: G12V_exchange IC50
Summary of the method: as §1

KRAS = assay: Inhibition of KRAS activity, assay not specified (at least one assay described herein); settings: remark in the synthesis example, assay not named
Description: The invention will be described in greater detail by way of specific examples. The following examples are offered for illustrative purposes, and are not intended to limit the invention in any manner. Those of skill in the art will readily recognize a variety of non-critical parameters which can be changed or modified to yield essentially the same results.

Chain of KRAS G12V (P01116 1-188 isoform P01116-2 G12V): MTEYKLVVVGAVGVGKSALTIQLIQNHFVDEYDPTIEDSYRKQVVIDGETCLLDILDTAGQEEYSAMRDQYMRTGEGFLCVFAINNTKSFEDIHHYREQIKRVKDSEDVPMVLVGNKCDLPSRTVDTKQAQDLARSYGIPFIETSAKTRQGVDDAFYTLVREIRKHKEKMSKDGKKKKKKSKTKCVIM
Chain of KRAS G12D (P01116 1-188 isoform P01116-2 G12D): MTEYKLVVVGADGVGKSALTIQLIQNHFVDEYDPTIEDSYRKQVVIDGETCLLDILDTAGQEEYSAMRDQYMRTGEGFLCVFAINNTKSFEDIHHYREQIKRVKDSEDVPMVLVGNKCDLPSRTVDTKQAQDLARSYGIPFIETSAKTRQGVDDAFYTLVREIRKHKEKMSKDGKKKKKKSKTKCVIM

| SMILES | IC50 (KRAS G12D) | IC50 (KRAS G12V) | potency of isolated peak relative to the other diastereomer (KRAS) |
| --- | --- | --- | --- |
| CC(=O)N1CC[C@H](n2cnc3c(O[C@@H](C)[C@@H]4CCCN4C)nc4c(F)c(-c5cccc6cccc(C#N)c56)c(Cl)cc4c32)C[C@H]1CC#N (single isomer, unassigned) [Example 39b] | ≤ 0.1 µM | ≤ 0.1 µM | potent peak |
| CCc1nc2c(-c3cc(C(=O)NC)ccc3F)nc3c(F)c(-c4cc(O)cc5ccccc45)c(CCC#N)cc3c2n1C1C2CNC1C2 (single isomer, unassigned) [Example 17a, 3-(1-((endo)-2-Azabicyclo[2.1.1]hexan-5-yl)-8-(2-cyanoethyl)-2-ethyl-6-fluoro-7-(3-hydroxynaphthalen-1-yl)-1H-imidazo[4,5-c]quinolin-4-yl)-4-fluoro-N-methylbenzamide] | ≤ 0.1 µM | ≤ 0.1 µM | More potent peak |
| CCc1nc2c(OCC34CCCN3CC(F)C4)nc3c(F)c(-c4c[nH]c5ccc(F)cc45)c(CCC#N)cc3c2n1C1C2CNC1C2 (mixture of isomers) [Example 30, 3-(1-((endo)-2-azabicyclo[2.1.1]hexan-5-yl)-2-ethyl-6-fluoro-7-(5-fluoro-1H-indol-3-yl)-4-(((2R,7aS)-2-fluorotetrahydro-1H-pyrrolizin-7a(5H)-yl)methoxy)-1H-imidazo[4,5-c]quinolin-8-yl)propanenitrile] | ≤ 0.1 µM | 0.1 to 1 µM |  |
| CN(C)C(=O)CCc1nc2c(N3CC(N(C)C)C3)nc3c(OCc4ccccc4)c(-c4cccc5ccc(F)cc45)c(CCC#N)cc3c2n1[C@@H]1[C@@H]2CN[C@H]1C2 (relative stereo) [Example 14, 3-(6-(benzyloxy)-1-((endo)-2-azabicyclo[2.1.1]hexan-5-yl)-8-(2-cyanoethyl)-4-(3-(dimethylamino)azetidin-1-yl)-7-(7-fluoronaphthalen-1-yl)-1H-imidazo[4,5-c]quinolin-2-yl)-N,N-dimethylpropanamide] | 0.1 to 1 µM | 5 to 10 µM |  |
